Measurements as given in patent US3953474A.

Columns and labels:
E. tenella = assay: Efficacy against E. tenella in broiler cockerels (Table I); format: in vivo, Eimeria tenella; details: for Percent Mortality: due to coccidiosis; for Percent Weight Gain: normal controls = 100; for Average Cecal Lesion Score: scale 0-4
Procedure: (§1) The anticoccidial effects of the A204I derivatives are illustrated by the effects of various of the compounds in controlling single-species infections of Eimeria tenella, Eimeria necatrix, Eimeria mivati, and Eimeria brunetti and a multiple-species infection of Eimeria maxima and Eimeria tenella in chickens.
(§2) For these studies, groups of five 7-day-old chicks were fed a mash diet containing therein a uniformly dispersed A204I derivative. After having been on this ration for 48 hours, each bird was inoculated with sporulated oocysts of the particular species of Eimeria being tested.
(§3) Some of these groups were also inoculated with Eimeria after 48 hours and served as infected controls. Other of these groups were not inoculated with Eimeria and served as normal controls. The results of treatment were evaluated 7 days after inoculation. The birds were weighed, sacrificed and examined for evidence of coccidial lesions. Coccidial involvement was expressed on an arbitrary scale, increasing from zero (no evidence of coccidiosis) to four (maximum involvement for the Eimeria sp. tested). The percent reduction in lesion score is calculated by subtracting the average lesion score of the treated group from the average lesion score of the infected control group, dividing this difference by the average lesion score of the infected control group, and multiplying the quotient by 100.
(§4) The percent weight gain is calculated using the weight gain of normal controls as 100 percent.

[1] = Acute oral toxicity in mice; details: mouse, in vivo
Source text: The acute toxicities in mice of various of the A204I derivatives, also administered orally and expressed as LD50, are as follows: […]

E. mivati = assay: Efficacy against E. mivati in broiler cockerels (Table III); format: in vivo, Eimeria mivati; details: for Percent Mortality: due to coccidiosis; for Percent Weight Gain: normal controls = 100; for Average Intestinal Lesion Score: scale 0-4; for Percent Reduction Lesion Score: vs infected controls
Procedure: as §1, §2, §3, §4

[2] = Rat feeding studies (Table VII); format: in vivo, rats; details: 14 days, mean
Procedure: For this test, five rats of each sex were studied for 14 days at each treatment level. The mean changes in body weight and the mean amounts of food ingested were calculated for each group.

E. necatrix = assay: Efficacy against E. necatrix in broiler cockerels (Table II); format: in vivo, Eimeria necatrix; details: for Percent Mortality: due to coccidiosis; for Percent Weight Gain: normal controls = 100; for Average Intestinal Lesion Score: scale 0-4; for Percent Reduction Lesion Score: vs infected controls
Procedure: as §1, §2, §3, §4

E. brunetti = assay: Efficacy against E. brunetti in broiler cockerels (Table IV); format: in vivo, Eimeria brunetti; details: for Percent Mortality: due to coccidiosis; for Percent Weight Gain: normal controls = 100; for Average Lesion Score: scale 0-4; for Percent Reduction Lesion Score: vs infected controls
Procedure: as §1, §2, §3, §4

pKa' determination = details: 66% aqueous dimethylformamide
E. maxima and E. tenella = assay: Efficacy against a mixed infection of E. maxima and E. tenella in broiler cockerels (Table V); format: in vivo, Eimeria maxima and Eimeria tenella; details: for Percent Mortality: due to coccidiosis; for Percent Weight Gain: normal controls = 100; for Cecal Lesions, Average Lesion Score / Intestinal Lesions, Average Lesion Score: scale 0-4; for Intestinal Lesions, Percent Reduction Lesion Score / Cecal Lesions, Percent Reduction Lesion Score: vs infected controls
Procedure: as §1, §2, §3, §4

[3] = second experiment, .0025 percent in diet
[4] = second experiment, .0025 percent in diet, vs infected control
[5] = first experiment, .00165 percent in diet
[6] = first experiment, .0066 percent in diet
[7] = second experiment, .005 percent in diet

In the case of `COCCOC1(C(C)C(=O)O)OC(CC2CC(OC)C(C)C3(O2)OC(C)(C2CCC(C4CCC(C5OC(C)(O)C(C)C(OC)C5C)O4)O2)C(OC)C3C)C(C)(OC)C(OC2CCC(OC)C(C)O2)C1C` (stereo not shown) [A204I 2-methoxyethyl ether derivative], the “Percent Mortality” value (E. tenella; [3]) is reported as 0%, the “Percent Weight Gain” value (E. tenella; [3]) is reported as 90% and the “Average Cecal Lesion Score” value (E. tenella; [3]) is reported as 2.9. The “Percent Reduction Lesion Score” value (E. tenella; [4]) was less than 40%.
For `COC1CCC(OC2C(C)C(OC(C)C)(C(C)C(=O)O)OC(CC3CC(OC)C(C)C4(O3)OC(C)(C3CCC(C5CCC(C6OC(C)(O)C(C)C(OC)C6C)O5)O3)C(OC)C4C)C2(C)OC)OC1C` (stereo not shown) [A204I isopropyl ether, A204I isopropyl ether derivative], the LD50 [1] was 20 to 36 mg/kg, the “Percent Mortality” value (E. tenella; [3]) was 0% and the “Percent Weight Gain” value (E. tenella; [3]) was 95%. For the same molecule, the “Average Cecal Lesion Score” value (E. tenella; [3]) was 2.3 and the “Percent Reduction Lesion Score” value (E. tenella; [4]) was less than 40%.
With `CCCOC1(C(C)C(=O)O)OC(CC2CC(OC)C(C)C3(O2)OC(C)(C2CCC(C4CCC(C5OC(C)(O)C(C)C(OC)C5C)O4)O2)C(OC)C3C)C(C)(OC)C(OC2CCC(OC)C(C)O2)C1C` (stereo not shown) [A204I n-propyl ether, A204I n-propyl ether derivative] the “Percent Mortality” value (E. mivati; .0025 percent in diet) was 0%, the “Percent Weight Gain” value (E. mivati; .0025 percent in diet) was 94% and the “Average Intestinal Lesion Score” value (E. mivati; .0025 percent in diet) was 0.27. The “Percent Reduction Lesion Score” value (E. mivati; .0025 percent in diet) was 85%, the “Percent Mortality” value (E. mivati; .005 percent in diet) was 0% and the “Percent Weight Gain” value (E. mivati; .005 percent in diet) was 97%. The “Average Intestinal Lesion Score” value (E. mivati; .005 percent in diet) was 0, the “Percent Reduction Lesion Score” value (E. mivati; .005 percent in diet) was 100% and the “Percent Mortality” value (E. mivati; .01 percent in diet) was 0%. For the same molecule, the “Percent Weight Gain” value (E. mivati; .01 percent in diet) was 98%, the “Average Intestinal Lesion Score” value (E. mivati; .01 percent in diet) was 0 and the “Percent Reduction Lesion Score” value (E. mivati; .01 percent in diet) was 100%. The “Body Weight Change” value ([2]; female, 5 ppm) was “+34.0 g”, the Food ingested ([2]; female, 5 ppm) was 224 g and the “Body Weight Change” value ([2]; female, 10 ppm) was “+36.0 g”. For the same molecule, the Food ingested ([2]; female, 10 ppm) was 218 g, the “Body Weight Change” value ([2]; female, 20 ppm) was “+31.6 g” and the Food ingested ([2]; female, 20 ppm) was 229 g. The “Body Weight Change” value ([2]; male, 5 ppm) was “+77.8 g”, the Food ingested ([2]; male, 5 ppm) was 281 g and the “Body Weight Change” value ([2]; male, 10 ppm) was “+45.2 g”. The Food ingested ([2]; male, 10 ppm) was 221 g, the “Body Weight Change” value ([2]; male, 20 ppm) was “+66.6 g” and the Food ingested ([2]; male, 20 ppm) was 288 g. For the same molecule, the “Percent Mortality” value (E. necatrix; .0025 percent in diet) was 0%, the “Percent Weight Gain” value (E. necatrix; .0025 percent in diet) was 63% and the “Average Intestinal Lesion Score” value (E. necatrix; .0025 percent in diet) was 1.6. The “Percent Reduction Lesion Score” value (E. necatrix; .0025 percent in diet) was 59%, the “Percent Mortality” value (E. necatrix; .005 percent in diet) was 6.7% and the “Percent Weight Gain” value (E. necatrix; .005 percent in diet) was 92%. The “Average Intestinal Lesion Score” value (E. necatrix; .005 percent in diet) was 0.2, the “Percent Reduction Lesion Score” value (E. necatrix; .005 percent in diet) was 95% and the “Percent Mortality” value (E. necatrix; .01 percent in diet) was 0%. For the same molecule, the “Percent Weight Gain” value (E. necatrix; .01 percent in diet) was 89%, the “Average Intestinal Lesion Score” value (E. necatrix; .01 percent in diet) was 0 and the “Percent Reduction Lesion Score” value (E. necatrix; .01 percent in diet) was 100%. For the same molecule, the “Percent Mortality” value (E. brunetti; .0025 percent in diet) was 0%, the “Percent Weight Gain” value (E. brunetti; .0025 percent in diet) was 95% and the “Average Lesion Score” value (E. brunetti; .0025 percent in diet) was 0.80. For the same molecule, the “Percent Mortality” value (E. brunetti; .005 percent in diet) was 0%, the “Percent Weight Gain” value (E. brunetti; .005 percent in diet) was 89% and the “Average Lesion Score” value (E. brunetti; .005 percent in diet) was 0. The “Percent Reduction Lesion Score” value (E. brunetti; .005 percent in diet) was 100%, the “Percent Mortality” value (E. brunetti; .01 percent in diet) was 0% and the “Percent Weight Gain” value (E. brunetti; .01 percent in diet) was 89%. For the same molecule, the “Average Lesion Score” value (E. brunetti; .01 percent in diet) was 0, the “Percent Reduction Lesion Score” value (E. brunetti; .01 percent in diet) was 100% and the LD50 [1] was 38 ± 6 mg/kg. The pKa (pKa' determination) was 7.8, the “Percent Mortality” value (E. tenella; [5]) was 35% and the “Percent Weight Gain” value (E. tenella; [5]) was 79%. For the same molecule, the “Average Cecal Lesion Score” value (E. tenella; [5]) was 4.0, the “Percent Reduction Lesion Score” value (E. tenella; first experiment, .00165 percent in diet, vs infected controls) was 0% and the “Percent Mortality” value (E. tenella; [6]) was 20%. For the same molecule, the “Percent Weight Gain” value (E. tenella; [6]) was 79%, the “Average Cecal Lesion Score” value (E. tenella; [6]) was 3.7 and the “Percent Reduction Lesion Score” value (E. tenella; first experiment, .0066 percent in diet, vs infected controls) was 0%. For the same molecule, the “Percent Mortality” value (E. tenella; [3]) was 0%, the “Percent Weight Gain” value (E. tenella; [3]) was 87% and the “Average Cecal Lesion Score” value (E. tenella; [3]) was 1.8. For the same molecule, the “Percent Reduction Lesion Score” value (E. tenella; [4]) was 50%, the “Percent Mortality” value (E. tenella; [7]) was 0% and the “Percent Weight Gain” value (E. tenella; [7]) was 96%. The “Average Cecal Lesion Score” value (E. tenella; [7]) was 0, the “Percent Reduction Lesion Score” value (E. tenella; second experiment, .005 percent in diet, vs infected control) was 100% and the “Percent Mortality” value (E. maxima and E. tenella; .0025 percent in diet) was 0%. The “Percent Weight Gain” value (E. maxima and E. tenella; .0025 percent in diet) was 94%, the “Cecal Lesions, Average Lesion Score” value (E. maxima and E. tenella; .0025 percent in diet) was 2.67 and the “Intestinal Lesions, Average Lesion Score” value (E. maxima and E. tenella; .0025 percent in diet) was 0.13. For the same molecule, the “Intestinal Lesions, Percent Reduction Lesion Score” value (E. maxima and E. tenella; .0025 percent in diet) was 84%, the “Percent Mortality” value (E. maxima and E. tenella; .005 percent in diet) was 0% and the “Percent Weight Gain” value (E. maxima and E. tenella; .005 percent in diet) was 99%. The “Cecal Lesions, Average Lesion Score” value (E. maxima and E. tenella; .005 percent in diet) was 0.07, the “Intestinal Lesions, Average Lesion Score” value (E. maxima and E. tenella; .005 percent in diet) was 0.07 and the “Cecal Lesions, Percent Reduction Lesion Score” value (E. maxima and E. tenella; .005 percent in diet) was 98%. The “Intestinal Lesions, Percent Reduction Lesion Score” value (E. maxima and E. tenella; .005 percent in diet) was 91%, the “Percent Mortality” value (E. maxima and E. tenella; .01 percent in diet) was 0% and the “Percent Weight Gain” value (E. maxima and E. tenella; .01 percent in diet) was 98%. For the same molecule, the “Cecal Lesions, Average Lesion Score” value (E. maxima and E. tenella; .01 percent in diet) was 0, the “Intestinal Lesions, Average Lesion Score” value (E. maxima and E. tenella; .01 percent in diet) was 0 and the “Cecal Lesions, Percent Reduction Lesion Score” value (E. maxima and E. tenella; .01 percent in diet) was 100%. For the same molecule, the “Intestinal Lesions, Percent Reduction Lesion Score” value (E. maxima and E. tenella; .01 percent in diet) was 100%.
